The text below walks through data of publication PMC10706420, “A New Drug Discovery Platform: Application to DNA Polymerase Eta and Apurinic/Apyrimidinic Endonuclease 1” (International Journal of Molecular Sciences, 2023).

Like-named read-outs stand apart in the source and are kept apart here.

In general, IC50 refers to the concentration needed to halve the response being measured.

The target of one experiment is T1, APE1 (Homo sapiens, UniProt P27695).
T1 construct: made in house
In words: in-house high-throughput in vitro biochemical assay for APE1 endonuclease activity (fluorescence-based).

Another experiment addresses Endonuclease IV (Escherichia coli, UniProt P0A6C1). Particulars: from IC50 for APE1 and EndoIV.

T1 sequence (P27695 whole entry): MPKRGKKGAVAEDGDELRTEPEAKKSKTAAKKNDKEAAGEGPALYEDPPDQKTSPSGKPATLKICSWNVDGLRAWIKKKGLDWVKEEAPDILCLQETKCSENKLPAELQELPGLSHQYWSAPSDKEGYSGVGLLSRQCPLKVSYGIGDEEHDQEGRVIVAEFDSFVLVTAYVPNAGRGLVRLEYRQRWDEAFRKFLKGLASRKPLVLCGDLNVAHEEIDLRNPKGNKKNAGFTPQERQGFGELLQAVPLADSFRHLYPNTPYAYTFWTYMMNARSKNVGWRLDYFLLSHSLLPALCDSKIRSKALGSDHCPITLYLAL

For `CC(=O)Nc1sc2c(c1-c1nc3ccccc3s1)CCN(C(C)C)C2` [Inhibitor III], the IC50 on APE1 was 2 µM; against APE1 (listed as APE1 Inhibitor III), around 2 µM. Besides, on Endonuclease IV, the “selectivity for APE1 over EndoIV” value is recorded as 3 fold.
